Data as given in patent US6867207B2, “IL-5 inhibiting 6-azauracil derivatives” (Janssen Pharmaceutica N.V., priority 1997, dated 2005).
Marks after values point to notes of the source that are not given here.

What follows are molecules tested on IL-5 production (assay: In vitro inhibition of IL-5 production in human blood (phytohemagglutinin-stimulated whole blood, ELISA)). Conditions: test dose 1×10^−5 M (values marked *), 48 hours.
Assay type: cell-based
Method: In Vitro Inhibition of IL-5 Production in Human Blood
Human Whole Blood Stimulation
Peripheral blood from healthy male donors was drawn into heparinized syringes (12.5 U heparin/ml). Blood samples were three-fold diluted in RMPI 1640 medium (Life Technologies, Belgium) supplemented with 2 mM L-glutamine, 100 U/ml penicillin and 100 μg/ml streptomycin, and 300 μl fractions were distributed in 24-well multidisc plates. Blood samples were preincubated (60 minutes at 37° C.) in a humidified 6% CO2-atmosphere with 100 μl of drug solvent (final concentration 0.02% dimethylsulfoxide in RPMI 1640) or with 100 μl of an appropriate dose of test compound before being stimulated by the addition of 100 μl of phytohemagglutinin HA17 (Murex, UK) at a final concentration of 2 μg/ml. After 48 hours, cell-free supernatant fluids were collected by centrifugation and stored at −70° C. until tested for the presence of IL-5.
IL-5 measurements were conducted as described in Van Wauwe et al. (1996, Inflamm Res, 45, 357-363) on page 358 using ELISA.
Table 9 lists the percentage inhibition of IL-5 production (column “% inh”) at a test dose of 1×10^−6 M, or in case the percentage inhibition is marked with an “*” 1×10^−5 M, the compounds of the present invention.

| SMILES | % inh. (percentage inhibition of IL-5 production), marked with * |
| --- | --- |
| Cc1cc(O)nc(SC(c2ccc(Cl)cc2)c2ccc(-n3ncc(=O)[nH]c3=O)cc2Cl)n1 (racemic) [Compound 60] | 24* % |

Same assay, conditions: test dose 1×10^−6 M, 48 hours

| SMILES | % inh. (percentage inhibition of IL-5 production) [%] |
| --- | --- |
| O=c1cnn(-c2ccc(C(c3ccncc3)c3ccc(Cl)cc3)c(Cl)c2)c(=O)[nH]1 (stereo not drawn) [Comp 112] | 62 |
| CN(C)Cc1sc(C(c2ccc(Cl)cc2)c2c(Cl)cc(-n3ncc(=O)[nH]c3=O)cc2Cl)nc1-c1ccccc1 (racemic) [Comp 253] | 96 |
| CN(C)CCN(C)C(=O)Cc1sc(C(c2ccc(Cl)cc2)c2c(Cl)cc(-n3ncc(=O)[nH]c3=O)cc2Cl)nc1-c1ccccc1 (racemic) [Comp 335] | 52 |
| O=c1cnn(-c2ccc(C(Sc3nc4ccccc4o3)c3ccc(Cl)cc3)c(Cl)c2)c(=O)[nH]1 (racemic) [Compound 71] | 84 |
| Cn1ccnc1SC(c1ccc(Cl)cc1)c1ccc(-n2ncc(=O)[nH]c2=O)cc1Cl (racemic) [Compound 58] | 5 |
| O=c1cnn(-c2cc(Cl)c(C(c3ccc(Cl)cc3)c3nc(-c4ccccc4)c(CO)s3)c(Cl)c2)c(=O)[nH]1 (racemic) [Comp 282] | 93 |
| O=c1cnn(-c2cc(Cl)c(C(c3ccc(Cl)cc3)c3nnc(-c4ccccc4)s3)c(Cl)c2)c(=O)[nH]1 (stereo not drawn) [Comp 427] | 72 |
| O=c1cnn(-c2cc(Cl)c(C(c3ccc(Cl)cc3)c3nc(-c4ccc(O)cc4)cs3)c(Cl)c2)c(=O)[nH]1 (racemic) [Comp 26] | 85 |
| Cc1ccccc1-c1nc(C(c2ccc(Cl)cc2)c2c(Cl)cc(-n3ncc(=O)[nH]c3=O)cc2Cl)cs1 (racemic) [Compound 374] | 94 |
| Cl.O=c1cnn(-c2ccc(C(NCCc3ccco3)c3ccc(Cl)cc3)c(Cl)c2)c(=O)[nH]1 (racemic) [Compound 43] | 37 |
| CC(c1ccc(Cl)cc1)(c1nnc(-c2ccccc2)o1)c1c(Cl)cc(-n2ncc(=O)[nH]c2=O)cc1Cl (racemic) [Compound 206] | 82 |
| O=c1cnn(-c2cc(Cl)c(C(c3ccc(Cl)cc3)c3nnc(-c4ccccc4[N+](=O)[O-])o3)c(Cl)c2)c(=O)[nH]1 (racemic) [Compound 210] | 79 |
| CCOC(=O)N1CCC(Nc2ccnc(SC(c3ccc(Cl)cc3)c3c(Cl)cc(-n4ncc(=O)[nH]c4=O)cc3Cl)n2)CC1 (racemic) [Compound 351] | 62 |
| O=c1cnn(-c2ccc(C(c3ccc(Cl)cc3)c3nc(-c4ccccc4)sc3-c3ccccc3)c(Cl)c2)c(=O)[nH]1 (racemic) [Compound 373] | 40 |
| O=c1cnn(-c2cc(Cl)c(C(Sc3ncccn3)c3ccc(Cl)cc3)c(Cl)c2)c(=O)[nH]1 (single isomer, unassigned) [Compound 347] | 8 |
| CN(C)CCc1sc(C(c2ccc(Cl)cc2)c2c(Cl)cc(-n3ncc(=O)[nH]c3=O)cc2Cl)nc1-c1ccccc1 (racemic) [Comp 279] | 92 |
| O=c1cnn(-c2ccc(C(c3ccc(Cl)cc3)c3nnc(-c4ccccc4)o3)c(Cl)c2)c(=O)[nH]1 (racemic) [Comp 101] | 66 |
| COC(c1ccc(Cl)cc1)(c1nc2ccccc2s1)c1ccc(-n2ncc(=O)[nH]c2=O)cc1Cl (stereo not drawn) [Comp 418] | 47 |
| Cc1nc(-c2cccc(F)c2)c(C(c2ccc(Cl)cc2)c2ccc(-n3ncc(=O)[nH]c3=O)cc2Cl)s1 (racemic) [Compound 143] | 81 |
| O=c1cnn(-c2cc(Cl)c(C(c3ccc(Cl)cc3)c3nc(-c4cccc(C(F)(F)F)c4)cs3)c(Cl)c2)c(=O)[nH]1 (racemic) [Comp 20] | 70 |

| SMILES | % inh. (percentage inhibition of IL-5 production) [%] |
| --- | --- |
| CN(C)CCNC(=O)c1sc(C(c2ccc(Cl)cc2)c2c(Cl)cc(-n3ncc(=O)[nH]c3=O)cc2Cl)nc1-c1ccccc1.O (racemic) [Comp 312] | 57 |
| CCOC(=O)Cc1nnc(C(c2ccc(Cl)cc2)c2c(Cl)cc(-n3ncc(=O)[nH]c3=O)cc2Cl)o1 (racemic) [Compound 176] | 3 |
| CC(=O)Nc1ccc(SC(c2ccc(Cl)c(C(F)(F)F)c2)c2c(Cl)cc(-n3ncc(=O)[nH]c3=O)cc2Cl)cc1 (racemic) [Compound 398] | 96 |
| O=c1cnn(-c2cc(Cl)c(C(Sc3nnc(-c4ccccc4)o3)c3ccc(Cl)c(C(F)(F)F)c3)c(Cl)c2)c(=O)[nH]1 (stereo not drawn) [Compound 391] | 97 |
| O=c1cnn(-c2ccc(C(c3ccc(Cl)cc3)c3nc(-c4ccccc4)no3)c(Cl)c2)c(=O)[nH]1 (racemic) [Compound 125, (±)-2-[(3-chloro-4-[(4-chlorophenyl)(3-phenyl-1,2,4-oxadiazol-5-yl)methyl]phenyl]-1,2,4-triazine-3,5(2H,4H)-dione] | 52 |
| O=c1cnn(-c2cc(Cl)c(C(Sc3ncccn3)c3ccc(Cl)cc3)c(Cl)c2)c(=O)[nH]1 (single isomer, unassigned) [Compound 346] | 86 |
| O=c1cnn(-c2cc(Cl)c(C(c3ccc(Cl)cc3)c3csc(-c4ccccc4F)n3)c(Cl)c2)c(=O)[nH]1 (racemic) [Compound 364] | 95 |
| O=c1cnn(-c2cc(Cl)c(C(c3ccc(Cl)cc3)c3nc(-c4cccc(Cl)c4Cl)cs3)c(Cl)c2)c(=O)[nH]1 (racemic) [Comp 252] | 80 |
| Cc1cc(C(c2nc(-c3ccccc3)cs2)c2c(Cl)cc(-n3ncc(=O)[nH]c3=O)cc2Cl)ccc1Cl (racemic) [Comp 269] | 90 |
| O=c1cnn(-c2ccc(C(c3ccc(Cl)cc3)n3cncn3)c(Cl)c2)c(=O)[nH]1 (racemic) [Comp 97] | 26 |
| O.O=c1cnn(-c2cc(Cl)c(C(c3ccc(Cl)cc3)c3nnc(-c4ccccc4Cl)o3)c(Cl)c2)c(=O)[nH]1 (racemic) [Compound 163] | 90 |
| O=c1cnn(-c2cc(Cl)c(C(c3ccc(Cl)cc3)c3csc(-c4cccnc4)n3)c(Cl)c2)c(=O)[nH]1 (racemic) [Compound 375] | 91 |
| O=c1cnn(-c2ccc(C(c3ccc(Cl)cc3)c3ccccn3)c(Cl)c2)c(=O)[nH]1 (stereo not drawn) [Comp 114] | 40 |
| CN(C)C(=O)CCc1sc(C(c2ccc(Cl)cc2)c2c(Cl)cc(-n3ncc(=O)[nH]c3=O)cc2Cl)nc1-c1ccccc1 (racemic) [Comp 281] | 91 |
| Cc1sc(NC(c2ccc(Cl)cc2)c2ccc(-n3ncc(=O)[nH]c3=O)cc2Cl)nc1-c1ccccc1 (racemic) [Compound 412] | 16 |
| O=c1cnn(-c2cc(Cl)c(C(c3ccc(Cl)cc3)c3nnc(-c4ccccc4F)o3)c(Cl)c2)c(=O)[nH]1 (racemic) [Compound 156] | 91 |
| Cc1sc(-c2ccccc2)nc1C(c1ccc(Cl)cc1)c1c(Cl)cc(-n2ncc(=O)[nH]c2=O)cc1Cl (racemic) [Compound 365] | 88 |
| COc1cccc(-c2csc(C(c3ccc(Cl)cc3)c3c(Cl)cc(-n4ncc(=O)[nH]c4=O)cc3Cl)n2)c1 (racemic) [Comp 24] | 74 |
| O=c1cnn(-c2cc(Cl)c(C(Sc3nc(-c4ccccc4)no3)c3ccc(Cl)c(C(F)(F)F)c3)c(Cl)c2)c(=O)[nH]1 (racemic) [Compound 404] | 92 |

Same assay, conditions: test dose 1×10^−6 M, 48 hours, read-out: % inh. (percentage inhibition of IL-5 production)

| SMILES | inhibition at 1 µM [%] |
| --- | --- |
| Cn1ccnc1C(c1ccc(Cl)cc1)c1ccc(-n2ncc(=O)[nH]c2=O)cc1Cl (racemic) [Compound 123, (±)-2-[3-chloro-4-[(4-chlorophenyl)(1-methyl-1H-imidazol-2-yl)methyl]phenyl]-1,2,4-triazine-3,5(2H,4H)-dione] | 13 |
| O=c1cnn(-c2ccc(C(c3ccc(Cl)cc3)c3nc4ccccc4o3)c(Cl)c2)c(=O)[nH]1 (racemic) [Compound 131, (±)-2-[4-[2-benzoxazolyl(4-chlorophenyl)methyl]-3-chlorophenyl]-1,2,4-triazine-3,5(2H,4H)-dione] | 76 |
| O=c1cnn(-c2ccc(C(c3ccc(Cl)cc3)c3nc4ccccc4s3)c(Cl)c2)c(=O)[nH]1 (racemic) [Compound 130, (±)-2-[4-[2-benzothiazolyl-(4-chlorophenyl)methyl]-3-chlorophenyl]-1,2,4-triazine-3,5(2H,4H)-dione] | 70 |
| O=c1cnn(-c2cc(Cl)c(C(CO)c3ccc(Cl)cc3)c(Cl)c2)c(=O)[nH]1 (racemic) [Compound 420, (±)-2-[3,5-dichloro-4-[1-(4-chlorophenyl)-2-hydroxyethyl]phenyl]-1,2,4-triazine-3,5(2H,4H)-dione] | 33 |
| Cc1nc(C(c2ccc(Cl)cc2)c2ccc(-n3ncc(=O)[nH]c3=O)cc2Cl)no1 (racemic) [Compound 126, (±)-2-[3-chloro-4-[(4-chlorophenyl)(5-methyl-1,2,4-oxadiazol-3-yl)methyl]phenyl]-1,2,4-triazine-3,5(2H,4H)-dione] | 40 |
